What was measured:
glucocorticoid receptor = biological target: T1, glucocorticoid receptor (Homo sapiens, UniProt P04150); test: Glucocorticoid Antagonist Screen (SelectScreen cell-based nuclear receptor profiling, GeneBLAzer beta-lactamase reporter); details: relative to RU486, which is 100%; glucocorticoid receptor-LBD-UAS-bla HEK 293T cells; activated by control agonist Dexamethasone
T1 construct: host or cells: HEK 293T
T1 sequence (P04150 524-758 limits assumed): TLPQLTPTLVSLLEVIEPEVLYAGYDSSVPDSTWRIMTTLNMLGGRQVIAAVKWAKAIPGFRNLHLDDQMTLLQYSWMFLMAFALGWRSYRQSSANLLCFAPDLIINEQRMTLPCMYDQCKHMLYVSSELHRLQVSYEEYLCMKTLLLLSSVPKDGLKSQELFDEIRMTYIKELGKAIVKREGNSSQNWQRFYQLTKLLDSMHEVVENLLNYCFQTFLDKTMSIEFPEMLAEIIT
Description: (§1) Determination of the agonist/antagonist nature of the test compounds was carried out using Invitrogen's SelectScreen™ Cell-based nuclear receptor profiling service which uses the GeneBLAzer® Beta-lactamase reporter technology. Basically this assay uses a Beta-lactamase cDNA under transcriptional control of an Upstream Activator Sequence (UAS). The UAS is activated by the GAL4 transcription factor DNA binding domain (DBD), which is expressed as a fusion protein with the target receptor ligand binding domain (LBD). Upon ligand binding, the GAL4(DBD)-NR(LDB) binds to the UAS, which controls transcription of Beta-lactamase. Beta-lactamase cleaves a special engineered fluorescent substrate which results in a change in the measured fluorescence wavelength.
(§2) The progesterone receptor-LBD-UAS-bla HEK 293T cells are thawed and prepared as described above for the Agonist screen. 4 μL of a 10× serial dilution of control antagonist RU486 (starting concentration, 100 nM) or test compounds are added to appropriate wells of a TC-Treated assay plate. 32 μL of cell suspension is added to the wells which is then pre-incubated at 37° C./5% CO2 in a humidified incubator with test compounds and control antagonist titration for 30 min. 4 μL of a 10× control agonist (see above) at the predetermined EC80 concentration is added to wells containing the control antagonist or test compounds. The plate is incubated for 16-24 h at 37° C./5% CO2 in a humidified incubator. 8 μL of 1 μM Substrate Loading Solution is added to each well and the plate is incubated for 2 h at room temperature. The plate is then read on a fluorescence plate reader (Tecan Safire).
The generalized protocol for the Glucocorticoid Antagonist Screen activated by control Agonist Dexamethasone was carried out as described for the Progesterone Antagonist Screen with the exception that glucocorticoid receptor-LBD-UAS-bla HEK 293T cells were used. The control antagonist used for the glucocorticoid assay was also RU486.

progesterone receptor = biological target: T2, progesterone receptor (Homo sapiens, UniProt P06401); test: Progesterone Antagonist Screen (SelectScreen cell-based nuclear receptor profiling, GeneBLAzer beta-lactamase reporter); details: relative to RU486, which is 100%; progesterone receptor-LBD-UAS-bla HEK 293T cells; activated by control agonist R5020 at EC80
T2 construct: host or cells: HEK 293T
T2 sequence (P06401 679-913 limits assumed): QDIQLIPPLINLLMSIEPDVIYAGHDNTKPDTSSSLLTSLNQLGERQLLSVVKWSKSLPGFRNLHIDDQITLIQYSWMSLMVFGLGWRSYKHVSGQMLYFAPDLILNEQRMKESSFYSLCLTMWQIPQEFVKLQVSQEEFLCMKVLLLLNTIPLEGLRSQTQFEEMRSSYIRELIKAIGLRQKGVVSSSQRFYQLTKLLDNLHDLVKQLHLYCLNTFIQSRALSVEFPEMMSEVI
Description: as §1
The generalized protocol used for the Progesterone Antagonist Screen, activated by control Agonist R5020 is as follows:
as §2

Row | Compound | Glucocorticoid Antagonist (%) (glucocorticoid receptor) | Progesterone Antagonist (%) (progesterone receptor)
1 | C[C@]12C[C@H](c3ccc(-n4ccnc4)cc3)C3=C4CCC(=O)C=C4CC[C@H]3[C@@H]1CC[C@@]2(O)C(F)(F)C(F)(F)F [Ia, 11β-(4′-(1-imidazolyl)phenyl)-17β-hydroxy-17-(1,1,2,2,2-pentafluoroethyl)-estra-4,9-diene-3-one] | 9 | 267
2 | C[C@]12C[C@H](c3ccc(-n4ccnc4)cc3)C3=C4CCC(=O)C=C4CC[C@H]3[C@@H]1CC[C@@]2(O)C#CC(F)(F)F [Ib, 11β-(4′-(1-imidazolyl)phenyl)-17β-hydroxy-17-(3,3,3-trifluoro-1-propynyl)-estra-4,9-diene-3-one] | 83 | 34
3 | C[C@]12C[C@H](c3ccc(-n4ccnc4)cc3)C3=C4CCC(=O)C=C4CCC3C1CC[C@@]2(O)/C=C/C(F)(F)F (stereo partly drawn) [Ic, 11β-(4′-(1-imidazolyl)phenyl)-17β-hydroxy-17-(3,3,3-trifluoroprop-1(E)-enyl)-estra-4,9-diene-3-one] | 31 | 54
4 | C=CC(F)(F)[C@]1(O)CC[C@H]2[C@@H]3CCC4=CC(=O)CCC4=C3[C@@H](c3ccc(-n4ccnc4)cc3)C[C@@]21C [Id, 11β-(4′-(1-imidazolyl)phenyl)-17β-hydroxy-17-(1,1-difluoroprop-2-enyl)-estra-4,9-diene-3-one] | 13 | 90
5 | C=C1CCOC12CCC1C3CCC4=CC(=O)CCC4=C3[C@@H](c3ccc(-n4ccnc4)cc3)C[C@@]12C (stereo partly drawn) [Ie, 11β-(4′-[1-imidazolyl]phenyl)-17,23-epoxy-19,24-dinor-17α-chola-4,9,20-triene-3-one] | 5 | 163
6 | CC(=O)c1ccc([C@H]2C[C@@]3(C)[C@@H](CC[C@@]3(O)C(F)(F)C(F)(F)F)[C@@H]3CCC4=CC(=O)CCC4=C32)cc1 [ZK 230211, reference compound] | 6 | 81

— patent publication US9096641B2, “Imidazolyl progesterone antagonists” (Evestra, Inc., priority 2013, dated 2015)
